Molecules are shown by their SMILES.

The target of this test is T1, Alpha amylase (Homo sapiens, UniProt P0DUB6).
T1 sequence (P0DUB6 whole entry): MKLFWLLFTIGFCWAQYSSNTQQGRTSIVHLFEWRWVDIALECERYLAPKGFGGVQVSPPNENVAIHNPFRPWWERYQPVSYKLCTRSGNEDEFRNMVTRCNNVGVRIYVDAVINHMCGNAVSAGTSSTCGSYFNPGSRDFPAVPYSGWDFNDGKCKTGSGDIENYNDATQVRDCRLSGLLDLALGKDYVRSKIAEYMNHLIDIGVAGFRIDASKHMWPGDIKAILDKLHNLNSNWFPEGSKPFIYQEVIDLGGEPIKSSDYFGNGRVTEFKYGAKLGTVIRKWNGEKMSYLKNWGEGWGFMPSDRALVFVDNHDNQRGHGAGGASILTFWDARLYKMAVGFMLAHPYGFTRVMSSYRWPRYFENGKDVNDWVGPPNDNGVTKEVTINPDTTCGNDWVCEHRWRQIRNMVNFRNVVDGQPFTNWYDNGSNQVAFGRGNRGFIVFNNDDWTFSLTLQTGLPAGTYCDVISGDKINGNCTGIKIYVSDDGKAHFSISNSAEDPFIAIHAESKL
Briefly: Inhibition of alpha-amylase (unknown origin) using starch as substrate preincubated for 10 mins followed by substrate addition measured after 10 mins by dinitrosalicylic acid reagent-based assay.
For orientation: IC50 means the concentration at which inhibition is half-maximal. A high value points to a need for much substance. `O=[N+]([O-])c1ccc2[nH]c(-c3cc(Br)ccc3F)nc2c1` displayed an IC50 of 2.31 µM. To `Oc1ccc(-c2nc3cc(F)ccc3[nH]2)c(O)c1O` belongs 2.54 µM; to `COc1cccc(-c2nc3cc(C)c(C)cc3[nH]2)c1Cl`, 2.84 µM. Take `COc1cc(-c2nc3cc([N+](=O)[O-])ccc3[nH]2)ccc1OC(C)=O`: the IC50 was determined as 1.73 µM. To `COc1cccc(-c2nc3cc(F)ccc3[nH]2)c1Cl` belongs 2.62 µM. The result for `COc1ccc(Br)c(-c2nc3ccccc3[nH]2)c1O` reads 2.48 µM. The result for `O=[N+]([O-])c1ccc2[nH]c(-c3cc(Cl)cc(Br)c3O)nc2c1` reads 2.87 µM; that for `COc1ccc(Br)c(-c2nc3cc(Cl)ccc3[nH]2)c1O`, 2.21 µM; that for `COc1cc(-c2nc3cc(F)ccc3[nH]2)ccc1OC(C)=O`, 1.68 µM.

In turn, `COc1cc(-c2nc3cc(C)c(C)cc3[nH]2)cc(I)c1O` gave an IC50 of 1.77 µM. The result for `Oc1c(Br)cc(Cl)cc1-c1nc2ccccc2[nH]1` reads 2.85 µM; that for `COc1ccc(-c2nc3cc([N+](=O)[O-])ccc3[nH]2)c(F)c1`, 2.75 µM. In turn, `COc1ccc(Br)cc1-c1nc2cc(Cl)ccc2[nH]1` returned an IC50 of 2.62 µM. The result for `COc1cc(Br)c(-c2nc3cc([N+](=O)[O-])ccc3[nH]2)cc1OC` reads 1.87 µM. The result for `COc1ccc(-c2nc3cc(Cl)ccc3[nH]2)c(Cl)c1OC` reads 1.51 µM; that for `COc1ccc(Br)c(-c2nc3cc(C)c(C)cc3[nH]2)c1O`, 2.26 µM; that for `COc1ccc(-c2nc3cc(F)ccc3[nH]2)c(F)c1`, 1.59 µM. The result for `COc1cc(-c2nc3cc(Cl)ccc3[nH]2)cc(I)c1O` reads 1.61 µM; that for `Cc1cc2nc(-c3cc(Cl)cc(Cl)c3O)[nH]c2cc1C`, 2.98 µM. For the molecule `COc1ccc(Br)c(-c2nc3cc(F)ccc3[nH]2)c1O`, the half-maximal inhibitory concentration (IC50) was found to be 2.17 µM. To `COc1ccc(-c2nc3cc(C)c(C)cc3[nH]2)c(F)c1` belongs 2.78 µM; to `COc1cc(Br)c(-c2nc3cc(C)c(C)cc3[nH]2)cc1OC`, 1.48 µM. For `COc1cc(-c2nc3cc(C)c(C)cc3[nH]2)cc(OC)c1Br`, the 50% inhibitory concentration (IC50) is 1.59 µM. The result for `Oc1ccc(-c2nc3cc(F)ccc3[nH]2)c(O)c1` reads 2.98 µM; that for `COc1ccc(-c2nc3cc(Cl)ccc3[nH]2)c(F)c1`, 2.74 µM; that for `COc1cc(-c2nc3cc(Cl)ccc3[nH]2)cc(OC)c1Br`, 1.62 µM.

As to `COc1cc(-c2nc3cc([N+](=O)[O-])ccc3[nH]2)cc(I)c1O`, the IC50 is 1.72 µM. The result for `COc1cc(-c2nc3cc(Cl)ccc3[nH]2)cc(OC)c1O` reads 2.52 µM; that for `COc1ccc(Br)c(-c2nc3cc([N+](=O)[O-])ccc3[nH]2)c1O`, 2.29 µM; that for `COc1cccc(-c2nc3cc([N+](=O)[O-])ccc3[nH]2)c1Cl`, 2.78 µM. In the case of `COc1ccc(Br)cc1-c1nc2cc(F)ccc2[nH]1`, the IC50 is 2.6 µM. With `COc1cccc(-c2nc3cc(Cl)ccc3[nH]2)c1Cl`, the IC50 was found to be 2.78 µM. To `Oc1c(Br)cc(Cl)cc1-c1nc2cc(F)ccc2[nH]1` belongs 2.86 µM; to `COc1ccc(-c2nc3cc(C)c(C)cc3[nH]2)c(OC)c1OC`, 2.3 µM. The molecule `Oc1c(Br)cc(Cl)cc1-c1nc2cc(Cl)ccc2[nH]1` showed an IC50 of 2.86 µM. `COc1cccc(-c2nc3ccccc3[nH]2)c1Cl`: the IC50 came out at 2.74 µM. To `Oc1c(Cl)cc(Cl)cc1-c1nc2cc(F)ccc2[nH]1` belongs 2.87 µM; to `COc1cc(-c2nc3cc(F)ccc3[nH]2)cc(OC)c1O`, 2.49 µM. The result for `COc1cc(-c2nc3cc(Cl)ccc3[nH]2)ccc1OC(C)=O` reads 1.68 µM; that for `COc1cc(Br)c(-c2nc3ccccc3[nH]2)cc1OC`, 1.51 µM. With `COc1ccc(-c2nc3cc(F)ccc3[nH]2)c(Cl)c1OC`, the IC50 came out at 2.56 µM. The result for `Cc1cc2nc(-c3cc(Cl)cc(Br)c3O)[nH]c2cc1C` reads 2.92 µM; that for `COc1cc(Br)c(-c2nc3cc(F)ccc3[nH]2)cc1OC`, 1.57 µM; that for `Cc1cc2nc(-c3cc(O)ccc3O)[nH]c2cc1C`, 2.99 µM. In the case of `COc1cc(Br)c(-c2nc3cc(Cl)ccc3[nH]2)cc1OC`, the IC50 was 1.73 µM.

Values taken from ChEMBL document CHEMBL4196082, “2-Aryl benzimidazoles: Synthesis, In vitro α-amylase inhibitory activity, and molecular docking study” (Eur J Med Chem, 2018).
